Assay results reported in patent US11661420B2 (NANJING HEPO PHARMACEUTICAL CO., LTD, priority 2019, dated 2023).

Experiments:
HBV DNA = assay: Cryopreserved PHH assay, real-time qPCR of HBV DNA in culture supernatant; type: cell-based, type D HBV in human primary hepatocytes (PHH); conditions: Hepatitis B virus, 240 h; PHH infected with type D HBV, supernatant day 10, qPCR
Protocol: (§1) The inhibitory effect of the compounds on HBV was evaluated by real-time quantitative qPCR assay (real time-qPCR) to detect the HBV DNA content in human primary hepatocytes (PHH) culture supernatant, and ELISA to detect the hepatitis B surface antigen and e antigen content, the EC50 value of the compounds was used as an indicator; meanwhile, the cell viability was detected by CellTiter-Glo to evaluate the toxicity of the compounds to cells.
(§2) 3.1. On day 0, PHH (1.32×10^5 cells/well) was seeded into a 48-well plate and incubated overnight at 37° C., 5% CO2.
(§3) 3.2. On the first day, PHH was infected with type D HBV (concentrated from HepDE19 cell culture supernatant).
(§4) 3.3 On the second day, the test compound was diluted to 7 concentrations with 5-fold serial dilution. Reference compound Peg-IFN-α 2a, 7 concentrations with 3-fold serial dilution. Compounds with different concentrations were added to the culture wells, and the wells were double-duplicated wells. The final concentration of DMSO in the culture medium was 2%.
(§5) 3.4 On the 4th, 6th, and 8th day, the culture medium was replaced by a fresh culture medium containing the compound.
(§6) 3.5 After collecting the culture supernatant from the culture well on the 10th day, the cell viability was tested with CellTiter-Glo. A portion of the culture supernatant was collected for ELISA determination to detect the content of hepatitis B virus surface antigen and e antigen; a portion of the sample was collected for extract DNA using a high-throughput DNA purification kit, referring to the product instructions for the specific steps.
3.6 Quantitative PCR to detect the content of HBV DNA
The qPCR reaction mixture, sample and standard were added to the 384 well reaction plate. PCR reactions: 95° C., 10 min; 95° C., 15 sec, 60° C., 1 min, 40 cycles.
(§7) Calculation of the inhibition percentage of HBV DNA, HBV surface antigen and e antigen. % Inh.=(1−value of the sample/value of DMSO control)×100.

HBV e antigen (HBeAg) = assay: Cryopreserved PHH assay, ELISA of hepatitis B e antigen in culture supernatant; type: cell-based, type D HBV in human primary hepatocytes (PHH); conditions: Hepatitis B virus, 240 h, read-out: HBeAg EC50
Protocol: as §1, §2, §3, §4, §5, §6
(§8) 3.7 ELISA determination of hepatitis B virus surface antigen and e antigen
(§9) The specific steps can be referred to the product manual, the steps are briefly described as follows: 50 μL of sample and standard was added to the reaction plate respectively, 50 μL of enzyme conjugate was added to each well, the mixture was shaken and mixed well, then kept in a warm bath at 37° C. for 60 minutes, the plate was washed with washing solution for 5 times, 50 μL of the luminescent substrate was added to each well, the mixture was mixed well, and the reaction was carried out in the dark at room temperature for 10 minutes, and finally the chemiluminescence intensity was detected with the instrument.
as §7

[1] = tested on: HBV surface antigen (HBsAg); assay: Cryopreserved PHH assay, ELISA of hepatitis B surface antigen in culture supernatant; type: cell-based, type D HBV in human primary hepatocytes (PHH); conditions: Hepatitis B virus, 240 h, read-out: HBsAg EC50
Protocol: as §1, §2, §3, §4, §5, §6, §8, §9, §7

[2] = Cryopreserved PHH assay, cell viability by CellTiter-Glo; type: cell-based; conditions: human, cryopreserved primary human hepatocytes (PHH), day 10, CellTiter-Glo
Protocol: as §1, §2, §4, §5, §6
Calculation of the percentage of cell viability: % viability=the luminescence value of the sample/the luminescence value of the DMSO control×100.

Compound	EC50 (HBV DNA)	EC50 (HBV e antigen (HBeAg))	EC50 [1]	CC50 at 8 days [2]
O=C(O)C1CCN(c2ccc3c(=O)c4cccc(Cl)c4oc3c2)C1 (stereo not shown) [A, reference compound]	576 nM	6880 nM	9930 nM	> 50000 nM
O=C(O)c1ccc(-c2csc(C3=NCc4cccc(Cl)c4N3)n2)cc1 [Compound I-1, 4-(2-(8-chloro-1,4-dihydroquinazolin-2-yl)thiazol-4-yl)benzoic acid]	22200 nM	18100 nM	38100 nM	> 50000 nM
CC1N=C(c2nc(-c3ccc(C(=O)O)cc3)cs2)Nc2c(Cl)cccc21 (stereo not shown) [Compound I-2, 4-(2-(8-chloro-4-methyl-1,4-dihydroquinazolin-2-yl)thiazol-4-yl)benzoic acid]	6.5 nM	5.4 nM	13.5 nM	> 50000 nM
CC1(C)N=C(c2nc(-c3ccc(C(=O)O)cc3)cs2)Nc2c(Cl)cccc21 [Compound I-4, 4-(2-(8-chloro-4,4-dimethyl-1,4-dihydroquinazolin-2-yl)thiazol-4-yl)benzoic acid]	4.12 nM	3.2 nM	10.2 nM	> 50000 nM
O=C(O)c1ccc(-c2csc(C3=NC4(CC4)c4cccc(Cl)c4N3)n2)cc1 [Compound I-5, 4-(2-(8′-chloro-1′H-spiro[cyclopropyl-1,4′-quinazolin]-2′-yl)thiazol-4-yl)benzoic acid]	11 nM	9 nM	105 nM	> 50000 nM
O=C(O)c1ccc(-c2csc(C3=NC4(COC4)c4cccc(Cl)c4N3)n2)cc1 [Compound I-11, 4-(2-(8′-chloro-1′H-spiro[oxetanyl-3,4′-quinazolin]-2′-yl)thiazol-4-yl)benzoic acid]	21 nM	17 nM	163 nM	> 50000 nM
O=C(O)c1ccc(-c2csc(-c3cc(=O)c4cccc(Cl)c4[nH]3)n2)cc1 [Compound I-13, 4-(2-(8-chloro-4-oxo-1,4-dihydroquinolin-2-yl)thiazol-4-yl)benzoic acid]	> 5000 nM	> 5000 nM	> 50000 nM	> 50000 nM
O=C(O)c1ccc(-c2ccc(-c3cc(=O)c4cccc(Cl)c4o3)cc2)cc1 [Compound I-14, 4′-(8-chloro-4-oxo-4H-benzopyran-2-yl)-[1.1′-biphenyl)-4-carboxylic acid]	> 20000 nM	> 20000 nM	> 50000 nM	> 50000 nM
O=C(O)c1ccc(-c2csc(-c3cc(=O)c4cccc(Cl)c4o3)n2)cc1 [Compound I-19, 4-(2-(8-chloro-4-oxo-4H-benzopyran-2-yl)thiazol-4-yl)benzoic acid]	28400 nM	~15000 nM	39600 nM	> 50000 nM
CC1(C)N=C(c2nc(-c3ccc(C(=O)O)cc3)cs2)Nc2ccccc21 [Compound I-20, 4-(2-(4,4-dimethyl-1,4-dihydroquinazolin-2-yl)thiazol-4-yl)benzoic acid]	5 nM	4 nM	32 nM	> 50000 nM
CC1(C)N=C(c2nc(-c3ccc(C(=O)O)cc3)cs2)Nc2c(F)cccc21 [Compound I-21, 4-(2-(8-fluoro-4,4-dimethyl-1,4-dihydroquinazolin-2-yl)thiazol-4-yl)benzoic acid]	6.9 nM	4.8 nM	16.5 nM	> 50000 nM
CC1(C)N=C(c2nc(-c3ccc(C(=O)O)cc3)cs2)Nc2c(Br)cccc21 [Compound I-22, 4-(2-(8-bromo-4,4-dimethyl-1,4-dihydroquinazolin-2-yl)thiazol-4-yl)benzoic acid]	10 nM	3.8 nM	> 50000 nM	> 50000 nM
CC1(C)N=C(c2nc(-c3ccc(C(=O)O)cc3)cs2)Nc2c(C(F)(F)F)cccc21 [Compound I-23, 4-(2-(4,4-dimethyl-8-trifluoromethyl-1,4-dihydroquinazolin-2-yl)thiazol-4-yl)benzoic acid]	8.3 nM	2 nM	> 50000 nM	> 50000 nM
CC1(C)N=C(c2nc(-c3ccc(C(=O)O)cc3)cs2)Nc2cc(Cl)ccc21 [Compound I-25, 4-(2-(7-chloro-4,4-dimethyl-1,4-dihydroquinazolin-2-yl)thiazol-4-yl)benzoic acid]	98.8 nM	63.2 nM	440 nM	> 50000 nM
CC1(C)N=C(c2nc(-c3ccc(C(=O)O)cc3)cs2)Nc2ccc(Cl)cc21 [Compound I-27, 4-(2-(6-chloro-4,4-dimethyl-1,4-dihydroquinazolin-2-yl)thiazol-4-yl)benzoic acid]	16.7 nM	21.1 nM	> 50000 nM	> 50000 nM
CC1(C)N=C(c2nc(-c3ccc(C(=O)O)cn3)cs2)Nc2ccccc21 [Compound I-34]	171 nM	66.4 nM	594 nM	> 50000 nM
CC1(C)N=C(c2nc(-c3ccc(C(=O)O)nc3)cs2)Nc2ccccc21 [Compound I-35, 5-(2-(4,4-dimethyl-1,4-dihydroquinazolin-2-yl)thiazol-4-yl)pyridin-2-carboxylic acid]	1130 nM	339 nM	1030 nM	> 50000 nM
CC1(C)N=C(c2nc(-c3cccc(C(=O)O)c3)cs2)Nc2c(Cl)cccc21 [Compound I-36, 3-(2-(8-chloro-4,4-dimethyl-1,4-dihydroquinazolin-2-yl)thiazol-4-yl)benzoic acid]	9960 nM	> 50000 nM	> 50000 nM	> 50000 nM
CC1(C)N=C(c2nc(-c3ccc(C(=O)O)cc3F)cs2)Nc2ccccc21 [Compound I-38, 4-(2-(4,4-dimethyl-1,4-dihydroquinazolin-2-yl)thiazol-4-yl)-3-flurobenzoic acid]	16 nM	12 nM	92 nM	> 50000 nM
COc1cc(-c2csc(C3=NC(C)(C)c4ccccc4N3)n2)ccc1C(=O)O [Compound I-40, 4-(2-(4,4-dimethyl-1,4-dihydroquinazolin-2-yl)thiazol-4-yl)-2-flurobenzoic acid]	31 nM	34 nM	302 nM	> 50000 nM
CC1N=C(c2ccc(-c3ccc(C(=O)O)cc3)cc2)Nc2c(Cl)cccc21 (stereo not shown) [Compound I-43, 4′-(8-chloro-4-methyl-1,4-dihydroquinazolin-2-yl)-[1.1′-biphenyl]-4-carboxylic acid]	> 50000 nM	40800 nM	> 50000 nM	> 50000 nM
CC1(C)N=C(c2ccc(-c3ccc(C(=O)O)cc3)cc2F)Nc2c(Cl)cccc21 [Compound I-46, 4′-(8-chloro-4,4-dimethyl-1,4-dihydroquinazolin-2-yl)-3′-fluoro-[1.1′-biphenyl]-4-carboxylic acid]	48800 nM	6320 nM	> 50000 nM	> 50000 nM
CC1(C)N=C(c2ccc(-c3ccc(C(=O)O)cc3)cn2)Nc2c(Cl)cccc21 [Compound I-48, 4-(6-(8-chloro-4,4-dimethyl-1,4-dihydroquinazolin-2-yl)pyridin-3-yl)benzoic acid]	4020 nM	426 nM	> 50000 nM	> 50000 nM
CC1(C)N=C(c2ncc(-c3ccc(C(=O)O)cc3)cn2)Nc2c(Cl)cccc21 [Compound I-49, 4-(2-(8-chloro-4,4-dimethyl-1,4-dihydroquinazolin-2-yl)pyrimidin-5-yl)benzoic acid]	10900 nM	41300 nM	> 50000 nM	> 50000 nM
CC1(C)N=C(c2cc(-c3ccc(C(=O)O)cc3)co2)Nc2c(Cl)cccc21 [Compound I-50, 4-(5-(8-chloro-4,4-dimethyl-1,4-dihydroquinazolin-2-yl)furan-3-yl)benzoic acid]	77.5 nM	53.7 nM	102 nM	> 50000 nM
